Results reported in patent US11548875B2, “Inhibitor compounds for male contraception” (University of Washington, priority 2018, dated 2023).
Entries after “also recorded” stand apart in the source; their conditions may differ.

Experiments:
[1] = test system: New Zealand white rabbits; test: Oral WIN 18,446 in rabbits: ejaculated sperm, testicular retinoic acid, serum testosterone; type: in vivo, rabbit
Description: In 2011, it was discovered that WIN 18,446 suppresses spermatogenesis by inhibiting testicular retinoic acid biosynthesis.
All animals were azoospermic between week 16 of treatment and week 8 of recovery. Animals underwent a hemi-orchiectomy at the end of treatment, which accounts for the 50% reduction in sperm output at the end of recovery. *p<0.05 compared with baseline.
FIG. 1C compares testicular tissue retinoic acid concentration (pmol/g of tissue) in New Zealand white rabbits treated with 200 mg/kg WIN 18,446 daily, orally over time (N=4/group). […] All values are means±SEM. *p<0.05 compared with placebo, **p<0.01.

men = settings: cited from earlier work

Q: With `O=C(NCCCCCCCCNC(=O)C(Cl)Cl)C(Cl)Cl` [WIN 18,446] as the compound, how does the “testicular tissue retinoic acid concentration” value ([1]; 200 mg/kg daily, orally over time) read?
A: reduction in intra-testicular retinoic acid

Q: And the ejaculated sperm concentrations ([1]; 200 mg/kg orally for 16 weeks, 200 mg/kg)?
A: reversible azoospermia; also recorded: azoospermic

Q: And the sperm concentration (men; at least sixty men, up to one year)?
A: below 1 million sperm/ml of ejaculate

Q: What about the “adverse reaction with alcohol” value (men; men, when they drank alcohol) of the same compound?
A: disulfiram reaction
